{
  "source": "patent US20210113495A1",
  "about": "“METHOD OF TREATING EPILEPSY OR EPILEPTIC ENCEPHALOPATHY WITH FENFLURAMINE IN PATIENTS WITHOUT PULMONARY HYPERTENSION” (ZOGENIX INTERNATIONAL LIMITED, priority 2018, published 2021)",
  "origin": "cited, not measured here",
  "key": {"patients with PH [1]": {"test_system": "patients with PH"}, "[2]": {"test_system": "child suffering pattern sensitivity-induced seizures", "conditions": "one child, seizures resistant to anticonvulsive treatment"}, "[3]": {"test_system": "self-induced photosensitive seizures", "conditions": "four cases"}, "[4]": {"test_system": "children with refractory epilepsy", "conditions": "dose of 0.5 to 1 mg/kg/day"}, "[5]": {"test_system": "pulmonary arterial hypertension patients", "conditions": "PAH patients who had started treatment with bosentan"}, "patients with PH [6]": {"test_system": "patients with PH", "conditions": "short-term infusion"}, "[7]": {"conditions": "initial right heart catheterization, resting, 15 women who had used fenfluramine, mean (SD)"}},
  "data": [
    {"smiles": "CCNC(C)Cc1cccc(C(F)(F)F)c1", "note": "(racemic) [fenfluramine, (RS)—N-ethyl-1-[3-(trifluoromethyl)phenyl]propan-2-amine]", "values": [
      {"measurement": "users with close temporal relation between fenfluramine use and development of exertional dyspnoea", "setting": "patients with PH [1]; 10 of 15 women with PH who had used fenfluramine", "result": 67, "unit": "%"},
      {"measurement": "overall survival, fenfluramine users vs controls", "setting": "patients with PH [1]; PH patients, transplant recipients excluded", "result": "no significant difference in overall survival"},
      {"measurement": "pulmonary artery pressure (PAP)", "setting": "patients with PH [1]; [7]", "result": "57 (9) mm Hg"},
      {"measurement": "pulmonary vascular resistance (PVR)", "setting": "patients with PH [1]; [7]", "result": "29 (10) U/m^2"},
      {"measurement": "effect on self-induced seizures", "setting": "[2]", "result": "successfully terminated these self-induced seizures"},
      {"measurement": "response of self-induced photosensitive seizures", "setting": "[3]", "result": "responded to treatment with fenfluramine"},
      {"measurement": "number of seizures experienced by the patients", "setting": "[4]", "result": "reduction in the number of seizures"}
    ]},
    {"smiles": "COc1ccccc1Oc1c(NS(=O)(=O)c2ccc(C(C)(C)C)cc2)nc(-c2ncccn2)nc1OCCO", "note": "[bosentan]", "values": [
      {"measurement": "patients alive at 2 years", "setting": "[5]", "result": 89, "unit": "%"}
    ]},
    {"smiles": "CCCCC[C@H](O)/C=C/[C@@H]1[C@H]2C/C(=C/CCCC(=O)O)O[C@H]2C[C@H]1O", "note": "[epoprostenol]", "values": [
      {"measurement": "mean fall in PVR compared with control values", "setting": "patients with PH [6]; 10 responding patients, mean (SD)", "result": "24 (15%)"},
      {"measurement": "vasodilator response", "setting": "patients with PH [6]; 15 women with PH who had used fenfluramine", "result": "significant vasodilator response in 10 patients"}
    ]}
  ]
}
